Test results taken from the supplement of paper PMC10307832.

Key:
Experiment in all cases: relative viability (nuclei count vs DMSO), 5 days (fraction); higher = more cells survive
BI-D1870 + Navitoclax = compound: CC(C)CCN1c2nc(Nc3cc(F)c(O)c(F)c3)ncc2N(C)C(=O)C1C [BI-D1870] + CC1(C)CCC(c2ccc(Cl)cc2)=C(CN2CCN(c3ccc(C(=O)NS(=O)(=O)c4ccc(N[C@H](CCN5CCOCC5)CSc5ccccc5)c(S(=O)(=O)C(F)(F)F)c4)cc3)CC2)C1 [Navitoclax] (partner 0.5 µM)
How it was run: (§1)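 Lung cancer cell lines in 1536-well plates got either a single drug or a fixed anchor-drug dose together with five library-drug doses (not always all listed) in √10 steps, by pin tool, on the day after seeding. Nuclei were counted after 5 days, and relative viability is the treated-to-vehicle ratio of nuclei counts. Values are medians of duplicate plates.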

BI-D1870 + Phenformin = compound: CC(C)CCN1c2nc(Nc3cc(F)c(O)c(F)c3)ncc2N(C)C(=O)C1C [BI-D1870] + N=C(N)NC(=N)NCCc1ccccc1 [Phenformin] (partner 250 µM)
How it was run: as §1

Zebularine + Luminespib = compound: O=c1ncccn1[C@@H]1O[C@H](CO)[C@@H](O)[C@H]1O [Zebularine] + CCNC(=O)c1noc(-c2cc(C(C)C)c(O)cc2O)c1-c1ccc(CN2CCOCC2)cc1 [Luminespib] (partner 0.01 µM)
How it was run: as §1

Zebularine + Alpelisib = compound: O=c1ncccn1[C@@H]1O[C@H](CO)[C@@H](O)[C@H]1O [Zebularine] + Cc1nc(NC(=O)N2CCC[C@H]2C(N)=O)sc1-c1ccnc(C(C)(C)C(F)(F)F)c1 [Alpelisib] (partner 2 µM)
How it was run: as §1

| Cell Line | relative viability (BI-D1870 + Navitoclax; first compound 0.04 µM) | relative viability (BI-D1870 + Navitoclax; first compound 0.1265 µM) | relative viability (BI-D1870 + Navitoclax; first compound 0.4 µM) | relative viability (BI-D1870 + Navitoclax; first compound 1.265 µM) | relative viability (BI-D1870 + Navitoclax; first compound 4 µM) | relative viability (BI-D1870 + Phenformin; first compound 0.04 µM) | relative viability (BI-D1870 + Phenformin; first compound 0.1265 µM) | relative viability (BI-D1870 + Phenformin; first compound 0.4 µM) | relative viability (BI-D1870 + Phenformin; first compound 1.265 µM) | relative viability (BI-D1870 + Phenformin; first compound 4 µM) | relative viability (Zebularine + Luminespib; first compound 1 µM) | relative viability (Zebularine + Luminespib; first compound 3.162 µM) | relative viability (Zebularine + Luminespib; first compound 10 µM) | relative viability (Zebularine + Luminespib; first compound 31.62 µM) | relative viability (Zebularine + Luminespib; first compound 100 µM) | relative viability (Zebularine + Alpelisib; first compound 1 µM) | relative viability (Zebularine + Alpelisib; first compound 3.162 µM) | relative viability (Zebularine + Alpelisib; first compound 10 µM) | relative viability (Zebularine + Alpelisib; first compound 31.62 µM) | relative viability (Zebularine + Alpelisib; first compound 100 µM) |
| --- | --- | --- | --- | --- | --- | --- | --- | --- | --- | --- | --- | --- | --- | --- | --- | --- | --- | --- | --- | --- |
| LU99A | 0.805 | 0.744 | 0.798 | 0.961 | 0.911 | 1.05 | 0.804 | 0.799 | 0.634 | 0.72 | 0.221 | 0.269 | 0.166 | 0.188 | 0.146 | 0.58 | 0.506 | 0.451 | 0.292 | 0.152 |
| LXF-289 | 0.951 | 0.923 | 0.94 | 0.936 | 0.895 | 0.561 | 0.493 | 0.491 | 0.529 | 0.451 | 0.729 | 0.75 | 0.444 | 0.382 | 0.202 | 1.08 | 1.06 | 0.827 | 0.811 | 0.329 |
| NCI-H23 | 1.15 | 0.741 | 0.792 | 0.891 | 0.888 | 0.827 | 0.758 | 0.768 | 0.759 | 0.736 | 0.217 | 0.221 | 0.21 | 0.211 | 0.199 | 0.577 | 0.709 |  | 0.775 | 0.563 |
| NCI-H322M | 1.22 | 1.19 | 1.44 | 1.06 | 1.07 | 0.841 | 0.764 | 0.668 | 0.626 | 0.701 | 0.905 | 0.992 | 0.707 | 0.703 | 0.662 | 0.732 | 0.756 | 0.772 | 0.673 | 0.676 |
| NCI-H441 | 0.478 | 0.575 | 0.692 | 0.642 | 0.338 | 1.02 | 0.832 | 0.74 | 1.17 | 0.872 | 0.301 | 0.266 | 0.298 | 0.244 | 0.225 | 0.779 | 0.73 | 0.496 | 0.271 | 0.264 |
| NCI-H460 | 1.24 | 1.09 | 1.08 | 0.407 | 0.0595 | 0.541 | 0.48 | 0.503 | 0.447 | 0.0984 | 0.0314 | 0.0246 | 0.0322 | 0.0331 | 0.0289 | 0.519 | 0.679 | 0.217 | 0.215 | 0.115 |
| NCI-H520 | 1.12 | 1.01 | 0.938 | 1.05 | 0.829 | 0.514 | 0.596 | 0.584 | 0.537 | 0.429 | 0.262 | 0.261 | 0.186 | 0.246 | 0.192 | 1.1 | 0.835 | 0.429 | 0.375 | 0.275 |
| NCI-H596 | 1.21 | 0.922 | 0.947 | 1.2 | 0.987 | 0.809 | 0.683 | 0.695 | 0.74 | 0.855 | 0.897 | 0.914 | 0.662 | 1.13 | 0.715 | 0.476 | 0.462 | 0.427 | 0.566 | 0.483 |
| NCI-H647 | 1.27 | 0.978 | 1.08 | 1.04 | 0.848 | 0.659 | 0.466 | 0.62 | 0.513 | 0.324 | 0.242 | 0.173 | 0.141 | 0.0957 | 0.0958 | 1.05 | 0.932 | 0.422 | 0.246 | 0.167 |
| NCI-H727 | 0.459 | 0.362 | 0.416 | 0.607 | 0.501 | 0.53 | 0.614 | 0.587 | 0.712 | 0.462 | 0.382 |  |  | 1.01 | 0.272 |  | 0.531 | 0.564 | 0.665 | 0.485 |
| NCI-H838 | 1.28 | 1.04 | 1.12 | 1.29 | 1.21 | 0.523 | 0.503 | 0.613 | 0.595 | 0.518 | 0.299 | 0.312 | 0.276 | 0.243 | 0.228 | 1.04 | 1.05 | 0.707 | 0.857 | 0.404 |
| NCI-H1355 | 0.959 | 0.959 | 0.988 | 1.05 | 1.03 | 0.494 | 0.418 | 0.44 | 0.46 | 0.38 | 0.93 | 0.654 | 0.595 | 0.452 | 0.29 | 0.856 | 0.798 | 0.728 | 0.635 | 0.385 |
| NCI-H1395 | 1.16 | 1.12 | 1.36 | 1.01 | 0.871 | 0.451 | 0.418 | 0.464 | 0.456 | 0.427 | 0.564 | 0.666 | 0.456 | 0.536 | 0.372 | 1.32 | 0.941 | 0.82 | 0.785 | 0.598 |
| NCI-H1437 | 1.19 | 1.06 | 1.11 | 1.03 | 0.973 | 0.279 | 0.255 | 0.309 | 0.332 | 0.27 | 1.22 | 1.23 | 0.956 | 1.16 | 0.59 | 1.16 | 1.03 |  | 1.14 | 0.319 |
| NCI-H1651 | 1.15 | 0.946 | 0.935 | 1.08 | 0.778 | 0.389 | 0.315 | 0.287 | 0.295 | 0.322 | 0.986 | 0.831 | 0.688 | 0.738 | 0.519 | 0.875 | 1.05 |  | 0.769 | 0.527 |
| NCI-H1666 | 0.89 | 0.822 | 0.81 | 0.933 | 0.851 | 0.572 | 0.521 | 0.592 | 0.58 | 0.537 | 1.01 | 0.932 | 0.966 | 1.01 | 0.751 | 1.16 | 0.984 | 0.852 | 0.932 | 0.618 |
